Laboratory results: US20080058213A1, “Benzoxazole Compounds” (priority 2004, published 2008)

Key:
Type in all cases: in vivo
[1] = tested on: barnyard grass (Echinochloa crusgalli); assay: Weed control test for paddy field (Test Example 1): barnyard grass; conditions: paddy pots, treated at 1.0 leaf stage of barnyard grass, examined after 3 weeks
Excerpt: (§1) Paddy field soil was filled in 1/10,000 are pots, kneaded with adequate amounts of water and chemical fertilizer, seeded with barnyard grass (Echinochloa crusgalli), Monochoria (Monochoria vaginalis), Japanese bulrush (Scirpus juncoides) and flat sedge (Cyperus serotinus), and further transplanted with 2.0 leaf stage of rice plant. The pots were maintained under the water-filled condition to a depth of 3 cm.
(§2) Wettable powders containing the compounds (1) as identified in Table 1, which were formulated following Production Example 2, were diluted with adequate amount of water and applied to the pots dropwise with pippet at a prescribed dose of the active ingredients per are, at 1.0 leaf stage of the barnyard grass.
(§3) After placing the pots in a glasshouse which was controlled at an average temperature of 25° C. for 3 weeks, herbicidal effect was examined.
(§4) Evaluation of the herbicidal effect is shown in the following six grades, by comparing the condition of untreated control and growth inhibition (%): • 0: 0%-less than 20% • 1: 20%-less than 40% • 2: 40%-less than 60% • 3: 60%-less than 80% • 4: 80%-less than 100% • 5: 100%.

[2] = tested on: Monochoria (Monochoria vaginalis); assay: Weed control test for paddy field (Test Example 1): Monochoria; conditions: paddy pots, treated at 1.0 leaf stage of barnyard grass, examined after 3 weeks
Excerpt: as §1, §2, §3, §4

[3] = tested on: Japanese bulrush (Scirpus juncoides); assay: Weed control test for paddy field (Test Example 1): Japanese bulrush; conditions: paddy pots, treated at 1.0 leaf stage of barnyard grass, examined after 3 weeks
Excerpt: as §1, §2, §3, §4

[4] = tested on: flat sedge (Cyperus serotinus); assay: Weed control test for paddy field (Test Example 1): flat sedge; conditions: paddy pots, treated at 1.0 leaf stage of barnyard grass, examined after 3 weeks
Excerpt: as §1, §2, §3, §4

rice plant = assay: Weed control test for paddy field (Test Example 1): phytotoxicity to rice plant
Excerpt: as §1, §2, §3
(§5) Evaluation of phytotoxicity is shown in the following six grades, as compared with the condition of untreated control: • 0: normal growth • 1: little damaged • 2: low damaged • 3: medium damaged • 4: serious damaged • 5: complete killed.

[5] = tested on: southern crabgrass (Digitaria ciliaris); assay: Soil treatment test for upland field (Test Example 2): southern crabgrass; conditions: soil treatment before germination, examined after 3 weeks
Excerpt: as §4
(§6) Upland field soil was filled in 1/3,000 are pots, seeded with southern crabgrass (Digitaria ciliaris), common lambsquaters (Chenopodium album), slender amaranth (Amaranthus viridis), common purslane (Portulaca oleracea), velvetleaf (Abutilon theophrasti), wheat, corn and soybean. The seeds were covered up with the soil.
(§7) Wettable powders containing the object compounds (1) as identified in Table 1, which were formulated following Preparation Example 2, were diluted with adequate amount of water to secure the prescribed dose of the active ingredient, and uniformly sprayed onto the surface soil layer after the seeding and before germination of the weeds, at an application water of 15 liters per are.
(§8) After placing the test pots in a glasshouse which was kept at an average temperature of 25° C. for 3 weeks, the herbicidal effect was examined.
(§9) Evaluations of the herbicidal effect and phytotoxicity were made in the manner similar to those in the above Test Example 1.

[6] = tested on: common lambsquaters (Chenopodium album); assay: Soil treatment test for upland field (Test Example 2): common lambsquaters; conditions: soil treatment before germination, examined after 3 weeks
Excerpt: as §4, §6, §7, §8, §9

[7] = tested on: slender amaranth (Amaranthus viridis); assay: Soil treatment test for upland field (Test Example 2): slender amaranth; conditions: soil treatment before germination, examined after 3 weeks
Excerpt: as §4, §6, §7, §8, §9

[8] = tested on: common purslane (Portulaca oleracea); assay: Soil treatment test for upland field (Test Example 2): common purslane; conditions: soil treatment before germination, examined after 3 weeks
Excerpt: as §4, §6, §7, §8, §9

[9] = tested on: velvetleaf (Abutilon theophrasti); assay: Soil treatment test for upland field (Test Example 2): velvetleaf; conditions: soil treatment before germination, examined after 3 weeks
Excerpt: as §4, §6, §7, §8, §9

wheat [10] = assay: Soil treatment test for upland field (Test Example 2): phytotoxicity to wheat; conditions: soil treatment before germination, examined after 3 weeks
Excerpt: as §5, §6, §8

corn [11] = assay: Soil treatment test for upland field (Test Example 2): phytotoxicity to corn; conditions: soil treatment before germination, examined after 3 weeks
Excerpt: as §5, §6, §8

soybean [12] = assay: Soil treatment test for upland field (Test Example 2): phytotoxicity to soybean; conditions: soil treatment before germination, examined after 3 weeks
Excerpt: as §5, §6, §8

southern crabgrass = assay: Foliage treatment test for upland field (Test Example 3): southern crabgrass; conditions: foliage treatment at 1.0-2.0 leaf stage of southern crabgrass, examined after 3 weeks
Excerpt: as §4
(§10) Compost mixed soil was filled in 1/3,000 are pots, seeded with southern crabgrass, common lambsquaters, slender amaranth, common purslane, velvetleaf, wheat, corn and soybean. The seeds were covered up with the soil and cultured in a glasshouse kept at 25° C. on the average.
(§11) Wettable powders containing the object compounds (1) as identified in Table 1, which were formulated following Preparation Example 2, were diluted with water to the prescribed dose of the active ingredient, and uniformly sprayed onto the weeds at 1.0-2.0 leaf stage of the southern crabgrass at an application water of 15 liters per are.
(§12) After placing the test pots in a grasshouse kept at 25° C. on the average for 3 weeks, the herbicidal effect was examined.
(§13) Evaluation of the herbicidal effect was conducted in the similar manner to Test Example 1.

common lambsquaters = assay: Foliage treatment test for upland field (Test Example 3): common lambsquaters; conditions: foliage treatment at 1.0-2.0 leaf stage of southern crabgrass, examined after 3 weeks
Excerpt: as §4, §10, §11, §12, §13

slender amaranth = assay: Foliage treatment test for upland field (Test Example 3): slender amaranth; conditions: foliage treatment at 1.0-2.0 leaf stage of southern crabgrass, examined after 3 weeks
Excerpt: as §4, §10, §11, §12, §13

common purslane = assay: Foliage treatment test for upland field (Test Example 3): common purslane; conditions: foliage treatment at 1.0-2.0 leaf stage of southern crabgrass, examined after 3 weeks
Excerpt: as §4, §10, §11, §12, §13

velvetleaf = assay: Foliage treatment test for upland field (Test Example 3): velvetleaf; conditions: foliage treatment at 1.0-2.0 leaf stage of southern crabgrass, examined after 3 weeks
Excerpt: as §4, §10, §11, §12, §13

wheat [13] = assay: Foliage treatment test for upland field (Test Example 3): phytotoxicity to wheat; conditions: foliage treatment at 1.0-2.0 leaf stage of southern crabgrass, examined after 3 weeks
Protocol: as §5, §10, §12

corn [14] = assay: Foliage treatment test for upland field (Test Example 3): phytotoxicity to corn; conditions: foliage treatment at 1.0-2.0 leaf stage of southern crabgrass, examined after 3 weeks
Protocol: as §5, §10, §12

soybean [15] = assay: Foliage treatment test for upland field (Test Example 3): phytotoxicity to soybean; conditions: foliage treatment at 1.0-2.0 leaf stage of southern crabgrass, examined after 3 weeks
Protocol: as §5, §10, §12

## COC/C(=C\c1cccc(C(F)(F)F)c1)c1nc2cc(Cl)ccc2o1 [Compound 3]
[1]; dose 2.5 g ai/a
  Herbicidal Effect Barnyard grass: 5 (100%)
[1]; dose 5 g ai/a
  Herbicidal Effect Barnyard grass: 5 (100%)
[2]; dose 2.5 g ai/a
  Herbicidal Effect Monochoria vaginalis: 5 (100%)
[2]; dose 5 g ai/a
  Herbicidal Effect Monochoria vaginalis: 5 (100%)
[3]; dose 2.5 g ai/a
  Herbicidal Effect Japanese bulrush: 4 (80%-less than 100%)
[3]; dose 5 g ai/a
  Herbicidal Effect Japanese bulrush: 5 (100%)
[4]; dose 2.5 g ai/a
  Herbicidal Effect Flat sedge: 3 (60%-less than 80%)
[4]; dose 5 g ai/a
  Herbicidal Effect Flat sedge: 5 (100%)
Rice plant; in vivo
  Phytotoxicity Rice plant: 1
[5]; dose 2.5 g ai/a
  Herbicidal Effect southern crabgrass: 5 (100%)
[5]; dose 5 g ai/a
  Herbicidal Effect southern crabgrass: 5 (100%)
[6]; dose 2.5 g ai/a
  Herbicidal Effect common lambsquaters: 5 (100%)
[6]; dose 5 g ai/a
  Herbicidal Effect common lambsquaters: 5 (100%)
[7]; dose 2.5 g ai/a
  Herbicidal Effect slender amaranth: 5 (100%)
[7]; dose 5 g ai/a
  Herbicidal Effect slender amaranth: 5 (100%)
[8]; dose 2.5 g ai/a
  Herbicidal Effect common purslane: 5 (100%)
[8]; dose 5 g ai/a
  Herbicidal Effect common purslane: 5 (100%)
[9]; dose 2.5 g ai/a
  Herbicidal Effect velvetleaf: 3 (60%-less than 80%)
[9]; dose 5 g ai/a
  Herbicidal Effect velvetleaf: 4 (80%-less than 100%)
Wheat [10]; dose 2.5 g ai/a
  Phytotoxicity wheat: 0
Wheat [10]; dose 5 g ai/a
  Phytotoxicity wheat: 0
Corn [11]; dose 2.5 g ai/a
  Phytotoxicity corn: 0
Corn [11]; dose 5 g ai/a
  Phytotoxicity corn: 1
Soybean [12]; dose 2.5 g ai/a
  Phytotoxicity soybean: 0
Soybean [12]; dose 5 g ai/a
  Phytotoxicity soybean: 0
Southern crabgrass; dose 2.5 g ai/a
  Herbicidal Effect southern crabgrass: 5 (100%)
Southern crabgrass; dose 5 g ai/a
  Herbicidal Effect southern crabgrass: 5 (100%)
Common lambsquaters; dose 2.5 g ai/a
  Herbicidal Effect Common lambsquatters: 5 (100%)
Common lambsquaters; dose 5 g ai/a
  Herbicidal Effect Common lambsquatters: 5 (100%)
Slender amaranth; dose 2.5 g ai/a
  Herbicidal Effect slender amaranth: 5 (100%)
Slender amaranth; dose 5 g ai/a
  Herbicidal Effect slender amaranth: 5 (100%)
Common purslane; dose 2.5 g ai/a
  Herbicidal Effect common purslane: 5 (100%)
Common purslane; dose 5 g ai/a
  Herbicidal Effect common purslane: 5 (100%)
velvetleaf; dose 2.5 g ai/a
  Herbicidal Effect velvetleaf: 5 (100%)
velvetleaf; dose 5 g ai/a
  Herbicidal Effect velvetleaf: 5 (100%)
Wheat [13]; dose 2.5 g ai/a
  Phytotoxicity wheat: 1
Wheat [13]; dose 5 g ai/a
  Phytotoxicity wheat: 1
Corn [14]; dose 2.5 g ai/a
  Phytotoxicity corn: 1
Corn [14]; dose 5 g ai/a
  Phytotoxicity corn: 1
Soybean [15]; dose 2.5 g ai/a
  Phytotoxicity soybean: 1
Soybean [15]; dose 5 g ai/a
  Phytotoxicity soybean: 2

## CSCC(=Cc1cccc(C(F)(F)F)c1)c1nc2cc(Cl)ccc2o1 [Compound 30]
[1]; dose 2.5 g ai/a
  Herbicidal Effect Barnyard grass: 4 (80%-less than 100%)
[1]; dose 5 g ai/a
  Herbicidal Effect Barnyard grass: 5 (100%)
[2]; dose 2.5 g ai/a
  Herbicidal Effect Monochoria vaginalis: 5 (100%)
[2]; dose 5 g ai/a
  Herbicidal Effect Monochoria vaginalis: 5 (100%)
[3]; dose 2.5 g ai/a
  Herbicidal Effect Japanese bulrush: 4 (80%-less than 100%)
[3]; dose 5 g ai/a
  Herbicidal Effect Japanese bulrush: 5 (100%)
[4]; dose 2.5 g ai/a
  Herbicidal Effect Flat sedge: 3 (60%-less than 80%)
[4]; dose 5 g ai/a
  Herbicidal Effect Flat sedge: 5 (100%)
Rice plant; dose 2.5 g ai/a, paddy pots, treated at 1.0 leaf stage of barnyard grass, examined after 3 weeks
  Phytotoxicity Rice plant: 0
Rice plant; dose 5 g ai/a, paddy pots, treated at 1.0 leaf stage of barnyard grass, examined after 3 weeks
  Phytotoxicity Rice plant: 0
[5]; dose 2.5 g ai/a
  Herbicidal Effect southern crabgrass: 3 (60%-less than 80%)
[5]; dose 5 g ai/a
  Herbicidal Effect southern crabgrass: 5 (100%)
[6]; dose 2.5 g ai/a
  Herbicidal Effect common lambsquaters: 4 (80%-less than 100%)
[6]; dose 5 g ai/a
  Herbicidal Effect common lambsquaters: 4 (80%-less than 100%)
[7]; dose 2.5 g ai/a
  Herbicidal Effect slender amaranth: 5 (100%)
[7]; dose 5 g ai/a
  Herbicidal Effect slender amaranth: 5 (100%)
[8]; dose 2.5 g ai/a
  Herbicidal Effect common purslane: 5 (100%)
[8]; dose 5 g ai/a
  Herbicidal Effect common purslane: 5 (100%)
[9]; dose 2.5 g ai/a
  Herbicidal Effect velvetleaf: 2 (40%-less than 60%)
[9]; dose 5 g ai/a
  Herbicidal Effect velvetleaf: 2 (40%-less than 60%)
Wheat [10]; dose 2.5 g ai/a
  Phytotoxicity wheat: 0
Wheat [10]; dose 5 g ai/a
  Phytotoxicity wheat: 1
Corn [11]; dose 2.5 g ai/a
  Phytotoxicity corn: 0
Corn [11]; dose 5 g ai/a
  Phytotoxicity corn: 0
Soybean [12]; dose 2.5 g ai/a
  Phytotoxicity soybean: 0
Soybean [12]; dose 5 g ai/a
  Phytotoxicity soybean: 0
